Here are results for 19 compounds from patent US7989451B2, “Tricyclic 1,2,4-triazine oxides and compositions for therapeutic use in cancer treatments” (Auckland Uniservices Limited, priority 2005, dated 2011).

Molecules are shown by their SMILES. Read-outs that look alike come from different tables or passages of the source.

Data set [1] deals with human colon carcinoma HT29. Briefly: Proliferation assay (IC50) under aerobic and hypoxic conditions, HT29. Format: cell-based. As to conditions: for IC50: 4 h drug exposure, sulforhodamine B; for HCR: hypoxic cytotoxicity ratio = IC50 aerobic/IC50 hypoxic. The procedure: (§1) Compounds representative of the invention were evaluated under both aerobic and hypoxic conditions in a proliferation assay (IC50), using two cell lines: human colon carcinoma HT29, and human cervical carcinoma SiHa (Table 1).
(§2) Drug exposures were performed in 96-well plates (Nunc) either using a 37 DC humidified incubator (20% O2, 5% CO2) or in the incubator compartment (37° C.) of an anaerobic chamber (Shell Lab) where palladium catalyst scrubbed gas (90% N2, 5% H2, 5% CO2) ensures severe anoxia (<0.001% O2). For each experiment, compounds were simultaneously tested under both oxic and hypoxic conditions and included TPZ as an internal control. An 8-methyl-5-nitroquinoline derivative, SN 24349, known to require very low oxygen concentrations for bioactivation (Siim et al., Br. J. Cancer 1994, 70, 596-603) was used to confirm that strict hypoxia was present during the experiment. […] Cell cultures were grown in αMEM (Gibco) containing 5% heat inactivated FCS and maintained in exponential growth phase. For each individual experiment an appropriate number of cells were seeded (HT29=1100; SiHa=1500) into wells in αMEM+10% FCS+10 mM added glucose+100 μM 2′-deoxycytidine (2′dCyd), and allowed to attach for 2-3 h. High glucose (final concentration 17 mM) and the presence of 2′-dCyd minimize hypoxia-induced cell cycle arrest. Cultures were then exposed to drugs, using 3-fold serial dilutions in duplicate, for a further 4 h. Subsequently cells were washed free of compound using complete media (without glucose/2′-dCyd) and allowed to grow for 5 (oxic) or 6 (anoxic) days. Plates were stained with sulforhodamine B as described previously (Wilson et al., J. Med. Chem. 1989, 32, 31-38) and IC50 values determined.
(§3) HCR=Hypoxic cytotoxicity ratio is defined as the ratio of IC50 values under aerobic and hypoxic conditions (IC50 aerobic/IC50 hypoxic).

Data set [2] relates to human cervical carcinoma SiHa. Briefly: Proliferation assay (IC50) under aerobic and hypoxic conditions, SiHa. The conditions noted are these: for IC50: 4 h drug exposure, sulforhodamine B; for HCR: hypoxic cytotoxicity ratio = IC50 aerobic/IC50 hypoxic. It counts as cell-based. The procedure: as §1, §2, §3
Where [3] appears, read: Homo sapiens, HT-29, hypoxic (anaerobic chamber, <0.001% O2), then 6 days growth, read-out: IC50 (μM) hypoxic.
Setting [4] is: Homo sapiens, HT-29, oxic (20% O2), then 5 days growth, read-out: IC50 (μM) oxic.
Where [5] appears, read: Homo sapiens, hypoxic (anaerobic chamber, <0.001% O2), then 6 days growth, read-out: IC50 (μM) hypoxic.
Setting [6] is: Homo sapiens, oxic (20% O2), then 5 days growth, read-out: IC50 (μM) oxic.
Setting [7] is: hypoxic (anaerobic chamber, <0.001% O2), then 6 days growth, read-out: IC50 (μM) hypoxic.
The mark [8] stands for this setting: oxic (20% O2), then 5 days growth, read-out: IC50 (μM) oxic.

For orientation: melting point means the temperature of the solid-liquid transition. In turn, `Nc1nc2cc3c(cc2[n+]([O-])n1)CCCCC3` [Compound 186, 7,8,9,10-Tetrahydro-6H-cyclohepta[g][1,2,4]benzotriazin-3-amine 1-Oxide] returned a melting point of 261 to 265 °C.

`CN(C)CCNc1nc2ccc3c(c2[n+]([O-])n1)CCCC3` [Compound 172, N^1,N^1-Dimethyl-N^2-(1-oxido-7,8,9,10-tetrahydronaphtho[2,1-e][1,2,4]triazin-3-yl)-1,2-ethanediamine] yielded a melting point of 151 to 153 °C.

`Nc1nc2cc3c(cc2[n+]([O-])n1)CCO3` [Compound 204, 7,8-Dihydrofuro[2,3-g][1,2,4]benzotriazin-3-amine 1-Oxide] showed a melting point of 293 to 296 °C.

The IC50 is the concentration that inhibits the measured activity by half. As to `[O-][n+]1nc(NCCCN2CCOCC2)[n+]([O-])c2cc3c(cc21)OCCC3` [Compound 244, N-[3-(4-Morpholinyl)propyl]-7,8-dihydro-6H-chromeno[6,7-e][1,2,4]triazin-3-amine 1,4-Dioxide], the IC50 amounted to 11 ± 3 µM in data set [1] (setting [3]), 188 ± 51 µM in data set [1] (setting [4]), 3.6 ± 0.5 µM in data set [2] (setting [5]) and 145 ± 29 µM in data set [2] (setting [6]). Further, the HCR was 19 ± 5 in data set [1] and 41 ± 10 in data set [2].

For `[O-][n+]1nc(NCCN2CCCOCC2)[n+]([O-])c2cc3c(cc21)CCC3` [Compound 49, N-[2-(1,4-Oxazepan-4-yl)ethyl]-7,8-dihydro-6H-indeno[5,6-e][1,2,4]triazin-3-amine 1,4-Dioxide], the IC50 in data set [1] (setting [3]) stood at 7.1 ± 0.6 µM; in data set [1] (setting [4]), 399 ± 148 µM; in data set [2] (setting [5]), 2.8 ± 1.2 µM; in data set [2] (setting [6]) it was 217 ± 52 µM. Moreover, the HCR is 58 ± 26 in data set [1] and 86 ± 18 in data set [2].

On to `[O-][n+]1nc(NCCCN2CCOCC2)[n+]([O-])c2cc3c(cc21)CCCC3` [Compound 180, N-[3-(4-Morpholinyl)propyl]-6,7,8,9-tetrahydronaphtho[2,3-e][1,2,4]triazin-3-amine 1,4-Dioxide], for which the IC50 in data set [1] (setting [3]) worked out at 6.3 ± 0.8 µM; in data set [1] (setting [4]), 158 ± 19 µM; in data set [2] (setting [5]), 2.6 ± 0.5 µM; in data set [2] (setting [6]), 127 ± 14 µM. The values for the HCR in data set [1] and in data set [2] were 25 ± 3 and 54 ± 16, respectively.

Turning to `CN(C)CCNc1n[n+]([O-])c2c3c(ccc2[n+]1[O-])OCCC3` [Compound 237, N^1-(1,4-Dioxido-9,10-dihydro-8H-chromeno[6,5-e][1,2,4]triazin-3-yl)-N^2,N^2-dimethyl-1,2-ethanediamine], the IC50 worked out at 4.1 µM in data set [1] (setting [3]), 59.1 µM in data set [1] (setting [4]), 0.67 µM in data set [2] (setting [5]) and 43.8 µM in data set [2] (setting [6]). Moreover, the HCR came out at 14 in data set [1] and 66 in data set [2].

Regarding `CCc1n[n+]([O-])c2cc3c(cc2[n+]1[O-])CC(CCN1CCOCC1)C3` (centres unmarked) [Compound 164, 3-Ethyl-7-[2-(4-morpholinyl)ethyl]-7,8-dihydro-6H-indeno[5,6-e][1,2,4]triazine 1,4-Dioxide], the half-maximal inhibitory concentration (IC50) in data set [1] (setting [3]) is 3.6 ± 1.1 µM; in data set [1] (setting [4]), 121 ± 21 µM; in data set [2] (setting [5]), 1.3 µM; in data set [2] (setting [6]) it was 95 ± 12 µM. Also, the results for the HCR in data set [1] and in data set [2] were 36 ± 5 and 84, respectively.

In the case of `CCN1Cc2cc3c(cc2C1)[n+]([O-])c(N)n[n+]3[O-]` [Compound 250, 7-Ethyl-7,8-dihydro-6H-[1,2,4]triazino[5,6-f]isoindol-3-amine 1,4-Dioxide], the IC50 in data set [1] (setting [3]) is 1.5 µM; in data set [1] (setting [4]), 6.2 µM; in data set [2] (setting [5]), 0.85 µM; in data set [2] (setting [6]), 36 ± 32 µM. Besides, the HCR in data set [2] was found to be 80.

Regarding `CN(C)CCNc1n[n+]([O-])c2c3c(ccc2[n+]1[O-])CCCC3` [Compound 173, N^1-(1,4-Dioxido-7,8,9,10-tetrahydronaphtho[2,1-e][1,2,4]triazin-3-yl)-N^2,N^2-dimethyl-1,2-ethanediamine], the half-inhibitory concentration (IC50) in data set [1] (setting [3]) was found to be 3.4 µM; in data set [1] (setting [4]), 60.5 µM; in data set [2] (setting [5]), 1 µM; in data set [2] (setting [6]), 62 µM. Besides, the HCR was 18 in data set [1] and 64 in data set [2].

Take `CCN(CC)CCNc1n[n+]([O-])c2cc3c(cc2[n+]1[O-])CCC3` [Compound 27, N^1-(1,4-Dioxido-7,8-dihydro-6H-indeno[5,6-e][1,2,4]triazin-3-yl)-N^2,N^2-diethyl-1,2-ethanediamine]: the half-inhibitory concentration (IC50) in data set [1] (setting [3]) worked out at 4.2 µM; in data set [1] (setting [4]), 254 µM; in data set [2] (setting [5]), 1.1 µM; in data set [2] (setting [6]) it was 143 µM. Further, the HCR is listed as 61 in data set [1] and 133 in data set [2].

As for `COC1CN(CCCc2n[n+]([O-])c3cc4c(cc3[n+]2[O-])CCC4)C1` [Compound 83, 3-[3-(3-Methoxy-1-azetidinyl)propyl]-7,8-dihydro-6H-indeno[5,6-e][1,2,4]triazine 1,4-Dioxide], the half-maximal inhibitory concentration (IC50) in data set [1] (setting [3]) amounted to 1.3 ± 0.2 µM; in data set [1] (setting [4]), 262 ± 83 µM; in data set [2] (setting [5]) it was 0.58 ± 0.19 µM; in data set [2] (setting [6]) it was 300 ± 162 µM. The HCR in data set [1] worked out at 249 ± 129; in data set [2], 640 ± 411.

As to `CN(C)CCCc1n[n+]([O-])c2cc3c(cc2[n+]1[O-])CCC3` [Compound 79, N-[3-(1,4-Dioxido-7,8-dihydro-6H-indeno[5,6-e][1,2,4]triazin-3-yl)propyl]-N,N-dimethylamine], the IC50 in data set [1] (setting [3]) amounted to 0.54 ± 0.07 µM; in data set [1] (setting [4]), 195 ± 99 µM; in data set [2] (setting [5]), 0.32 ± 0.09 µM; in data set [2] (setting [6]), 194 ± 120 µM. In addition, the HCR in data set [1] came out at 386 ± 213; in data set [2], 738 ± 523.

As for `COC1CCCN(CCNc2n[n+]([O-])c3cc4c(cc3[n+]2[O-])CCC4)C1` (centres unmarked) [Compound 41, N-[2-(3-Methoxy-1-piperidinyl)ethyl]-7,8-dihydro-6H-indeno[5,6-e][1,2,4]triazin-3-amine 1,4-Dioxide], the IC50 came out at 93 ± 11 µM in data set [1] (setting [3]), 1390 ± 349 µM in data set [1] (setting [4]), 46 ± 11 µM in data set [2] (setting [5]) and 1750 ± 148 µM in data set [2] (setting [6]). The HCR is recorded as 19 ± 0.3 in data set [1] and 46 ± 17 in data set [2].

Consider `[O-][n+]1nc(CCCN2CCCCC2)[n+]([O-])c2cc3c(cc21)CCC3` [Compound 87, 3-[3-(1-Piperidinyl)propyl]-7,8-dihydro-6H-indeno[5,6-e][1,2,4]triazine 1,4-Dioxide], for which the 50% inhibitory concentration (IC50) in data set [1] (setting [3]) came out at 0.37 ± 0.05 µM; in data set [1] (setting [4]), 202 ± 72 µM; in data set [2] (setting [5]), 0.26 ± 0.08 µM; in data set [2] (setting [6]) it was 219 ± 96 µM. Besides, the values for the HCR in data set [1] and in data set [2] were 598 ± 233 and 1000 ± 431, respectively.

In the case of `[O-][n+]1nc(NCCN2CCOCC2)[n+]([O-])c2cc3c(cc21)CCC3` [Compound 45, N-[2-(4-Morpholinyl)ethyl]-7,8-dihydro-6H-indeno[5,6-e][1,2,4]triazin-3-amine 1,4-Dioxide], the IC50 came to 19 ± 2 µM in data set [1] (setting [3]), 310 ± 109 µM in data set [1] (setting [4]), 9.9 ± 1.4 µM in data set [2] (setting [5]) and 245 ± 60 µM in data set [2] (setting [6]). Further, the HCR was 17 ± 6 in data set [1] and 28 ± 11 in data set [2].

As to `[O-][n+]1nc(CCCN2CCCC2)[n+]([O-])c2cc3c(cc21)CCC3` [Compound 85, 3-[3-(1-Pyrrolidinyl)propyl]-7,8-dihydro-6H-indeno[5,6-e][1,2,4]triazine 1,4-Dioxide], the IC50 in data set [1] (setting [3]) amounted to 0.63 ± 0.05 µM; in data set [1] (setting [4]), 161 ± 48 µM; in data set [2] (setting [5]), 0.35 ± 0.01 µM; in data set [2] (setting [6]), 133 ± 42 µM. Besides, the HCR was 249 ± 55 in data set [1] and 385 ± 125 in data set [2].

For `N#CC1CCN(CCCNc2n[n+]([O-])c3cc4c(cc3[n+]2[O-])CCC4)C1` (centres unmarked) [Compound 57, 1-{3-[(1,4-Dioxido-7,8-dihydro-6H-indeno[5,6-e][1,2,4]triazin-3-yl)amino]propyl}-3-pyrrolidinecarbonitrile], the half-maximal inhibitory concentration (IC50) in data set [1] (setting [3]) worked out at 22 ± 1 µM; in data set [1] (setting [4]) it was 87 ± 3 µM; in data set [2] (setting [5]), 10.4 ± 0.6 µM; in data set [2] (setting [6]), 231 ± 64 µM. In addition, the results for the HCR in data set [1] and in data set [2] were 4 ± 0.1 and 22 ± 6, respectively.

Turning to `[O-][n+]1nc(NCCCN2CCOCC2)[n+]([O-])c2ccc3c(c21)CCC3` [Compound 15, N-[3-(1-Morpholinyl)propyl]-8,9-dihydro-7H-indeno[5,4-e][1,2,4]triazin-3-amine 1,4-Dioxide], the IC50 in data set [1] (setting [7]) was 37.6 µM; in data set [1] (setting [8]) it was 902 µM; in data set [2] (setting [7]), 13.9 µM; in data set [2] (setting [8]), 460 µM. In addition, the HCR in data set [1] came to 24; in data set [2], 33.
